{"source": "patent US12123010B2", "about": "“Plants having increased tolerance to herbicides” (BASF SE, priority 2017, dated 2024)", "key": {"[1]": {"test_system": "Variant PPO Enzyme L397Q, F420M (Amaranthus PPO2)", "assay_type": "biochemical", "settings": "variant L397Q, F420M vs wild type"}, "[2]": {"test_system": "Variant PPO Enzyme F420V (Amaranthus PPO2)", "assay_type": "biochemical", "settings": "variant F420V vs wild type"}}, "data": [{"molecule": "CCOC(=O)COc1ncccc1Oc1nc(-n2c(=O)cc(C(F)(F)F)n(C)c2=O)c(F)cc1Cl", "note": "[Uracilpyridine 2, ethyl 2-[[3-[[3-chloro-5-fluoro-6-[3-methyl-2,6-dioxo-4-(trifluoromethyl)pyrimidin-1-yl]-2-pyridyl]oxy]-2-pyridyl]oxy]acetate]", "values": [{"measurement": "Tolerance Factor (R/S)", "setting": "[1]", "value": 4843}, {"measurement": "Tolerance Factor (R/S)", "setting": "[2]", "value": 567}]}]}
